Measurements published in US3932633A, “Novel o-triazenobenzamides, in treating aggressive behavior” (Uniroyal Inc., priority 1974, dated 1976).
Like-named read-outs stand apart in the source and are kept apart here.

Columns and labels:
[1] = test system: isolation-induced fighting in mice; experiment: Isolated fighting mouse (IFM) test / isolated mouse aggression; assay type: in vivo; conditions: for responders at 30 mg/kg / ED50: Mus musculus, ip; for responders at 30 mg/kg: 30 mg/kg intraperitoneally, at least 40% protected = active
Protocol: *IFM - Isolated fighting mouse test at a dose of 30 mg/kg
intraperitoneally; those compounds which protected at least 40% of the
(§1) Two models of aggression are used in the primary screening for neuroleptics, (1) isolation-induced fighting in mice (IFM), and (2) aggression induced in rats by destruction of the septal area (septal rat). Compounds are first submitted, however, to the neuropharmacological profile, a standard procedure (see, e.g., Samuel Irwin, Science, 136, 123 [1962]) employed in screening a compound to determine its usefulness as a central nervous system active compound. Those agents which cause depression over a wide dose range are then submitted to the first anti-aggression screen, the isolation-induced fighting mouse assay.
(§2) The compound of Example 6 was compared with chlorpromazine and chlordiazepoxide for its anti-aggressive activity. Three models of experimentally-induced aggression in rodents were studied (R. D. Sofia, Life Science, 8: 705, 1969).

[2] = test system: dihydroxyphenylalanine-induced fighting behavior in mice; experiment: Dihydroxyphenylalanine (DOPA) fighting test; assay type: in vivo, mouse; conditions: 200 mg/kg d1-DOPA; pargyline 80 mg/kg, Example 6 100 mg/kg, chlorpromazine 5 mg/kg, chlordiazepoxide 15 mg/kg
Protocol: It is well known that when monoamine oxidase inhibitors are administered prior to the administration of d1-DOPA, which is a noradrenaline precursor, convulsions or excitation occur. In this study, the MAO inhibitor pargyline (80 mg/kg) was given 1, 2 and 4 hours prior to administering 200 mg/kg of d1-DOPA. […] Thus, in this procedure, none of the agents tested appears to be a MAO inhibitor.

[3] = test system: isolation-induced fighting in mice; experiment: Isolated fighting mouse (IFM) test / isolated mouse aggression; assay type: in vivo; conditions: po, 30 mg/kg, per os, read-out: IFM % protected
[4] = test system: d-amphetamine aggregation-induced lethality; experiment: d-Amphetamine aggregation; assay type: in vivo; conditions: inactive at: Example 6 200 mg/kg, chlordiazepoxide 50 mg/kg
Protocol: Protection from d-amphetamine aggregation-induced lethality is usually afforded by alpha-adrenergic-blocking agents such as chlorpromazine, phenoxybenzamine, etc. Percent protection was determined and an ED50 value was calculated.

[5] = test system: electroshock-induced fighting in mice; experiment: Electroshock-induced fighting in mice; assay type: in vivo, mouse; conditions: for ED50: Mus musculus, ip, read-out: ED50 (95% Confidence Limits), Electroshock-Induced Fighting in Mice; for NTD50/ED50, Electroshock-Induced Fighting in Mice: i.p. administration
Source text: as §2

[6] = test system: pentylenetetrazol seizures in mice; experiment: Pentylenetetrazol seizures; assay type: in vivo, mouse; conditions: for ED50: Mus musculus, ip, 1 h
Protocol: In this test (modification of the method introduced by Everett and Richard, J. Pharmacol. Exptl. Ther., 81: 402, 1944), groups of ten mice each are pretreated i.p. with vehicle and various doses of the compound of Example 6 and placed in Plexiglas squares. Thirty minutes later, all mice are injected subcutaneously (s.c.) with pentylenetetrazol at 125 mg/kg and observed immediately thereafter for convulsions and death for a period of 1 hour.

[7] = Neurotoxicity (rotating rod / rotorod), mice; conditions: mouse, in vivo, ip; I.P., mice; 95% confidence limits; read-out: NTD50
Protocol: (§3) In the neurotoxicity test, the value (NTD50) is defined as the dose necessary to cause 50% of mice or rats trained to walk a rotating wooden rod (5 rpm) to fall at the time of peak effect, and is a measure of drug effects on motor function or central nervous system toxicity. The results set forth in Table III were obtained when the compound of Example 6 was tested against chlorpromazine and chlordiazepoxide.

5 day lethality, mice = conditions: mouse, in vivo, Mice, 5 day, 10 per cage, read-out: LD50 (95% Confidence Limits)
Source text: (§4) Table VIII gives the results of 5 day lethality studies following single injections of drug. All values presented represent tests conducted when animals were housed 10 per cage. The compound of Example 6 was compared with chlorpromazine and chlordiazepoxide. In these and all the preceding calculations, the method of Litchfield and Wilcoxon (J. Pharmacol. Exptl. Ther., 96: 99, 1949) was used to estimate effective (ED50) or lethal (LD50) dose.

[8] = Neurotoxicity (rotating rod / rotorod), rats; conditions: rat, in vivo, ip; I.P., rats; 95% confidence limits; read-out: NTD50
Protocol: as §3

[9] = test system: spontaneous locomotor activity in rats; experiment: Spontaneous locomotor activity; assay type: in vivo; conditions: Rattus norvegicus, ip, 0.5 h, read-out: SD50 (dose causing 50% reduction from control activity)
[10] = test system: maximal electroshock seizures in mice; experiment: Maximal electroshock seizures; assay type: in vivo, mouse
Protocol: Groups of ten mice each were injected i.p. with a vehicle and the compound of Example 6 and placed in individual Plexiglas squares. Thirty minutes after i.p. injection, each mouse was administered an electric shock transcorneally at 50mA intensity, 0.2 seconds duration (Swinyard, et al, J. Pharmacol. Exptl. Ther., 106: 319, 1952). The criterion for activity is protection against tonic extension of the hind limbs. The dose necessary to protect 50% of the mice (MES50) was determined.

5 day lethality, rats = conditions: rat, in vivo, ip; Rats, I.P., 5 day, 10 per cage; read-out: LD50 (95% Confidence Limits)
Source text: as §4

[11] = test system: aggression induced in rats by destruction of the septal area; experiment: Septal rat aggression; assay type: in vivo; conditions: for ED50: Rattus norvegicus, ip, read-out: ED50 (95% Confidence Limits), Septal Rat Aggression
Source text: as §1, §2

[12] = test system: hissing response elicited by hypothalamic stimulation in cats; conditions: Baxter, Life Sciences, 3: 531, 1964, cited from earlier work
[13] = i.p. administration, read-out: ED50 (IFM)

Cc1cccc(NN=Nc2ccccc2C(N)=O)c1 [Example 14]
responders at 30 mg/kg [1]: 80%

Cc1nc(NN=Nc2ccccc2C(=O)N(C)C)sc1C(=O)NCc1ccccc1 [Example 31]
responders at 30 mg/kg [1]: 60%

NC(=O)c1ccccc1N=NNc1cccnc1 [Example 19]
responders at 30 mg/kg [1]: 80%

CNC(=O)c1ccccc1N=NNc1ccc(C)c(Cl)c1 [Example 27]
responders at 30 mg/kg [1]: 80%

CNC(=O)c1ccccc1N=NNc1ccc(C)cc1 [Example 26]
responders at 30 mg/kg [1]: 100%

COc1ccc(NN=Nc2ccccc2C(N)=O)cn1 [Example 22]
responders at 30 mg/kg [1]: 100%

Cc1ccccc1NN=Nc1ccccc1C(N)=O [Example 13]
responders at 30 mg/kg [1]: 100%

NC(=O)c1ccccc1N=NNc1cccc(Cl)c1 [Example 36]
responders at 30 mg/kg [1]: 40%

C#CCN(C)Cc1ccccc1 [pargyline]
excitation, salivation, jumping, and fighting with d1-DOPA [2]: excitation, salivation, jumping, and fighting

COc1ccc(NN=Nc2ccccc2C(N)=O)cc1 [Example 24]
responders at 30 mg/kg [1]: 100%

CCOc1ccc(NN=Nc2ccccc2C(N)=O)cc1 [Example 38]
responders at 30 mg/kg [1]: 40%

NC(=O)c1ccccc1N=NNc1nccs1 [Example 2, 2-[3-(2-thiazolyl)-2(or 1)-triazeno]-benzamide]
responders at 30 mg/kg [1]: 80%
ED50 [1, 13]: 9.4 mg/kg

NC(=O)c1ccccc1N=NNc1ccccc1C(N)=O [Example 1, 2,2'-diazoaminobenzamide]
responders at 30 mg/kg [1]: 100%

NC(=O)c1ccccc1N=NNc1ccccc1Cl [Example 35]
responders at 30 mg/kg [1]: 80%
ED50 [1, 13]: 5.2 mg/kg

CCn1c2ccccc2c2cc(NN=Nc3ccccc3C(N)=O)ccc21 [Example 4, 2-[3-(9-ethyl-3-carbazolyl)-2(or 1)-triazeno]-benzamide]
responders at 30 mg/kg [1]: 100%

COc1ccc([N+](=O)[O-])cc1NN=Nc1ccccc1C(N)=O [Example 33]
responders at 30 mg/kg [1]: 100%
ED50 [1, 13]: 14 mg/kg

CCNC(=O)c1ccccc1N=NNc1nc(C)c(C(=O)NCc2ccccc2)s1 [Example 30]
responders at 30 mg/kg [3]: 60%

CNC(=O)c1ccccc1N=NNc1nc(C)c(C(=O)NCc2ccccc2)s1 [Example 29]
responders at 30 mg/kg [1]: 100%

Cc1c(Cl)cccc1NN=Nc1ccccc1C(N)=O [Example 39]
responders at 30 mg/kg [1]: 40%

Cc1nc(NN=Nc2ccccc2C(N)=O)sc1C(=O)N1CCOCC1 [Example 5, 2-[3-(4-methyl-5-morpholinocarbonyl-2-thiazolyl)-2(or 1)-triazeno]-benzamide]
responders at 30 mg/kg [1]: 100%
ED50 [1, 13]: 6.7 mg/kg

NC(=O)c1ccccc1N=NNc1cccc2c1C(=O)c1ccccc1C2=O [Example 23]
responders at 30 mg/kg [1]: 40%

COc1ccccc1NN=Nc1ccccc1C(N)=O [Example 25]
responders at 30 mg/kg [1]: 60%

Cc1ccc(NN=Nc2ccccc2C(N)=O)cc1C [Example 16]
responders at 30 mg/kg [1]: 60%

Cc1cc(C)c(NC(=O)c2sc(NN=Nc3ccccc3C(N)=O)nc2C)c(C)c1 [Example 9]
responders at 30 mg/kg [1]: 60%

NC(=O)c1ccccc1N=NNc1cccc([N+](=O)[O-])c1 [Example 15]
responders at 30 mg/kg [1]: 100%

COc1ccc(Cl)cc1NN=Nc1ccccc1C(N)=O [Example 37]
responders at 30 mg/kg [1]: 60%

NC(=O)c1ccccc1N=NNc1cccnc1Cl [Example 21]
responders at 30 mg/kg [1]: 40%

Cc1ccc(NN=Nc2ccccc2C(N)=O)cc1 [Example 8, 2-[3-p-tolyl-1(or 2)-triazeno]-benzamide]
responders at 30 mg/kg [1]: 100%

Cc1nc(NN=Nc2ccccc2C(N)=O)sc1C(=O)Nc1ccccc1 [Example 18]
responders at 30 mg/kg [1]: 60%

NC(=O)c1ccccc1N=NNc1ccc([N+](=O)[O-])cc1 [Example 12]
responders at 30 mg/kg [1]: 100%

CCCCNC(=O)c1ccccc1N=NNc1ccc(C)c(Cl)c1 [Example 28]
responders at 30 mg/kg [1]: 60%

CN(C)CCCN1c2ccccc2Sc2ccc(Cl)cc21 [Chlorpromazine, chlorpromazine]
ED50 [4]: 1.2 mg/kg
ED50 [5]: 5.5 mg/kg
NTD50/ED50, Electroshock-Induced Fighting in Mice [5]: 0.1
MET50 ([6]; I.P., mice, inactive at: Example 6 200 mg/kg, chlorpromazine 100 mg/kg): Inactive
TD50 [7]: 0.7 mg/kg
excitation, salivation, jumping, and fighting with d1-DOPA [2]: these symptoms were not observed
LD50 at 120 h (5 day lethality, mice; ip, I.P.): 136 mg/kg
LD50 at 120 h (5 day lethality, mice; po, P.O.): 280 mg/kg
TD50 [8]: 5.3 mg/kg
ED50 ([1]; i.p. administration, read-out: ED50 (95% Confidence Limits), Isolated Mouse Aggression): 2.8 mg/kg
NTD50/ED50, Isolated Mouse Aggression ([1]; i.p. administration): 0.3
ED50 [9]: 1.7 mg/kg
MES50 ([10]; I.P., mice, inactive at: Example 6 200 mg/kg, chlorpromazine 25 mg/kg): Inactive
LD50 at 120 h (5 day lethality, rats): 138 mg/kg
ED50 ([11]; i.p. administration): 10.7 mg/kg
NTD50/ED50, Septal Rat Aggression ([11]; i.p. administration): 0.5

Cc1nc(NN=Nc2ccccc2C(N)=O)sc1C(=O)Nc1ccccc1Cl [Example 17]
responders at 30 mg/kg [1]: 60%

COc1cc([N+](=O)[O-])c(C)cc1NN=Nc1ccccc1C(N)=O [Example 34]
responders at 30 mg/kg [1]: 100%
ED50 [1, 13]: 14.5 mg/kg

COC(=O)c1ccccc1NN=Nc1ccccc1C(N)=O [Example 10]
responders at 30 mg/kg [1]: 80%
ED50 [1, 13]: 6 mg/kg

NC(=O)c1ccccc1N=NNc1ccc(Cl)cc1 [Example 11]
responders at 30 mg/kg [1]: 40%

NC(=O)c1ccccc1N=NNc1ccc2ncccc2c1 [Example 20]
responders at 30 mg/kg [1]: 40%

CNC1=Nc2ccc(Cl)cc2C(c2ccccc2)=[N+]([O-])C1 [Chlordiazepoxide, chlordiazepoxide]
ED50, d-amphetamine aggregation [4]: Inactive
ED50 [5]: 4.2 mg/kg
NTD50/ED50, Electroshock-Induced Fighting in Mice [5]: 3.3
ED50 ([6]; read-out: MET50, convulsions): 7.1 mg/kg
ED50 ([6]; read-out: MET50, death): 2.6 mg/kg
TD50 [7]: 13.8 mg/kg
effect on hypothalamic threshold / rage response [12]: increase the threshold of the hypothalamus to electrical stimulation
effect on hypothalamic threshold / rage response ([12]; listed as chlordiazepoxide): specific in inhibiting this response
excitation, salivation, jumping, and fighting with d1-DOPA [2]: these symptoms were not observed
LD50 at 120 h (5 day lethality, mice; ip, I.P.): 400 mg/kg
LD50 at 120 h (5 day lethality, mice; po, P.O.): 810 mg/kg
TD50 [8]: 4.3 mg/kg
ED50 ([1]; read-out: ED50 (95% Confidence Limits), Isolated Mouse Aggression): 20.5 mg/kg
NTD50/ED50, Isolated Mouse Aggression ([1]; i.p. administration): 0.7
ED50 ([10]; Mus musculus, ip, 0.5 h, read-out: MES50): 14.3 mg/kg
LD50 at 120 h (5 day lethality, rats): 265 mg/kg
ED50 [11]: 25.8 mg/kg
NTD50/ED50, Septal Rat Aggression ([11]; i.p. administration): 0.6

Cc1ccc(NN=Nc2ccccc2C(=O)Nc2ccccc2)cc1 [Example 32]
responders at 30 mg/kg [1]: 60%
